Measurements: US20080058642A1, “METHOD FOR DETECTING CORONARY ENDOTHELIAL DYSFUNCTION AND EARLY ATHEROSCLEROSIS” (BOARD OF REGENTS OF THE UNIVERSITY OF TEXAS SYSTEM, priority 2006, published 2008)

Tests used:
myocardial perfusion = assay: Rest-dipyridamole myocardial perfusion PET with Markovian homogeneity analysis; format: in vivo, human
Description: Study Patients. The population for this study consists of 1,034 consecutive subjects undergoing diagnostic, rest-dipyridamole, myocardial perfusion PET at The Weatherhead PET Center For Preventing and Reversing Atherosclerosis of the University of Texas Medical School—Houston. All subjects signed informed consent approved by the Committee for the Protection of Human Subjects of the University of Texas Health Science Center. A complete medical history was obtained on all patients undergoing diagnostic cardiac PET for assessment or follow-up of known CAD, for second opinions on revascularization procedures, for prior positive stress tests, for coronary calcification by CT, for chest pain or other symptoms, for screening, or for risk factors. A history of risk factors was obtained for age, sex, diabetes, hypertension, high cholesterol, family history of vascular disease, excess weight, lack of exercise, and past or present smoking, that were counted as positive even if treated, as with hypertensive or lipid-lowering medications.
PET. Patients were instructed to fast for 4 h and abstain from caffeine, theophylline, and cigarettes for 24 h before study. PET was performed using the University of Texas designed, Positron Posicam Auricle, bismuth germanate, 2-dimensional (2D) multislice tomograph with a reconstructed resolution of 10-mm full width at half maximum. Using a rotating rod source containing 148-185 MBq (4-5 mCi) of ^68Ge, transmission images to correct for photon attenuation contained approximately 40-60 million counts. Emission images obtained after intravenous injection of 925-1,850 MBq (25-50 mCi) of generator-produced ^82Rb contained 20-50 million counts depending on the age of the generator and size of the patient. After resting ^82Rb data acquisition, dipyridamole (0.142 mg/kg/min) was infused for 4 min. At 4 min after completion of the dipyridamole infusion, the same dose of ^82Rb was given intravenously.
Automated Quantitative Analysis of PET Images. […]

endothelin 1A receptor = molecular target: T1, endothelin 1A receptor (Sus scrofa, UniProt Q29010); conditions: porcine saphenous vein-carotid artery interposition grafts; cited from earlier work
T1 construct: host or cells: in vivo, porcine vein grafts
T1 sequence (Q29010 21-427): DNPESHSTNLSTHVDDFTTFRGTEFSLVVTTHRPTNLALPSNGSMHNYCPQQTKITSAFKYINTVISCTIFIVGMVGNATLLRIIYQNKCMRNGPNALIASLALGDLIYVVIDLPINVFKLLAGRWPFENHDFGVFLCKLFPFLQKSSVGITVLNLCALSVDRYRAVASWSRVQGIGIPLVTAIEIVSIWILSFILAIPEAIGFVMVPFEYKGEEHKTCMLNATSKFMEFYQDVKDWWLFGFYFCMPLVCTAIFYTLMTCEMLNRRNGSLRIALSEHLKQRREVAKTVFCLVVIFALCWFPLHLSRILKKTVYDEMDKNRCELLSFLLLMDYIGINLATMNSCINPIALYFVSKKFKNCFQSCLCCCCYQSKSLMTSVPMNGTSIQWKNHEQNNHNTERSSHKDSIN

[1] = tested on: healthy adult hound dogs (left circumflex coronary artery, LCx, territory); assay: Endothelin-induced myocardial perfusion defects by 82Rb PET imaging in dogs; format: in vivo, dog; conditions: for AD i.c. pre-ET: LCx 82Rb uptake as % of baseline: intracoronary adenosine before ET-1; for AD i.c. post-ET: LCx 82Rb uptake as % of baseline: intracoronary adenosine after ET-1; for AD i.v.: LCx 82Rb uptake as % of baseline: intravenous adenosine 0.142 mg/kg/min after ET-1; for severity of perfusion defect after intracoronary infusion: intracoronary into LCx for 10 min, L-NMMA 100-400 μg/kg/min in five dogs vs ET-1
Protocol: Experimental Preparation. The experimental protocol was approved by the Animal Welfare Committee of the University of Texas Health Sciences Center at Houston. After an overnight fast, healthy adult hound dogs (n=14) of both sexes, 21-35 kg, were anesthetized with 30 mg/kg pentobarbital sodium (Nembutal) and underwent endotracheal intubation and mechanical ventilation with adequate anesthesia maintained by small supplemental doses during the experiment. Arterial blood gases were maintained within physiological range by adjusting the mechanical ventilator with supplemental oxygen, core body temperature was maintained at 37° C. with a homeothermic blanket, and stable body position was maintained throughout the duration of the imaging protocol by using a specially designed portable cradle for both coronary arteriography and PET imaging without moving the dog strapped to the portable cradle.
Arterial access was obtained via the right femoral artery by standard Seldinger technique with an arterial micropuncture kit (Cook, Bloomington, Ind.) with a 6-F arterial sheath. All animals received 100 IU/kg of initial heparin bolus, with 50 IU/kg every hour for the duration of the experiment. A 6-F standard JL3 VistaBrite coronary guide catheter (Cordis-Cardiology, Miami Lakes, Fla.) was positioned under fluoroscopic guidance into the left main coronary artery ostium.
After a stable position for the guide catheter was obtained, a 0.014-in.-diameter Hi-Torque Whisper guide wire (Guidant, Indianapolis, Ind.) was placed in the left circumflex coronary artery (LCx). Over the coronary wire, a 2.3-F, 150-cm-long, 0.042-in.-minimal diameter Rapidtransit infusion catheter (Cordis-Cardiology) was positioned in the LCx, with the tip in the midsegment of the LCx artery proximal to the takeoff of the first large obtuse marginal branch. The guide wire was removed, the guide catheter was withdrawn into the aortic root, and the small catheter was left in place in the mid-LCx.
Experimental Protocol. Contrast angiograms were obtained to document the LCx as the dominant coronary artery and the small catheter position in the mid-LCx. With contrast solution diluted 50% with normal saline, different injection rates were tested to determine the rate at which back flow occurred into the proximal segment of the coronary artery. […] Dogs were then moved into the PET scanner without changing position on the special cradle, and a repeat subselective angiogram was performed under fluoroscopy on the PET imaging table to ensure that the small intracoronary infusion catheter positioned in the mid-LCx had not changed during transportation. PET imaging was carried out with the University of Texas-designed Posicam BGO multislice tomograph HZL/mPower (Positron, Houston) as previously described (e.g., Halcox et al., Circulation 106:653-658, 2002), with a reconstructed resolution of 10-mm full-width half-maximum. Images were acquired in two-dimensional mode with extended septa to minimize scattered counts with random coincidences corrected from the singles count rate.
On the basis of a 5-min positioning transmission scan, dogs were precisely positioned in the PET scanner and laser guides aligned to external body markers were used to check correct position for every image acquisition. With a rotating rod source containing 4-5 mCi of ^68Ge, transmission images to correct for photon attenuation contained about 70-90 million counts. Emission images obtained after intravenous injection of […]-1,110 MBq (25-30 mCi) of generator-produced rubidium-82 (^82Rb) contained about 20-30 million counts. The protocol used the following imaging sequence as illustrated in FIG. 7.
Step 1. Immediately after completion of a resting perfusion image with intravenous ^82Rb, 3 mg/ml adenosine (Fujisawa Healthcare, Deerfield, Ill.) was infused subselectively into the LCx for 4 min at 2 ml/min. […]

[2] = intracoronary ET-1 1.5-3.5 ng/kg/min for 10 min, repeated doses in six dogs

In the case of `OCCN(CCO)c1nc(N2CCCCC2)c2nc(N(CCO)CCO)nc(N3CCCCC3)c2n1` [dipyridamole], the “lowest mean average quadrant activity on the dipyridamole scan” value (myocardial perfusion; patient with severe stress-induced perfusion defect) is reported as 63 % of maximum, the “homogeneity index by Markovian analysis after dipyridamole” value (myocardial perfusion; patient with severe stress-induced perfusion defect, 0.34 at rest) is reported as 0.49 and the “homogeneity index by Markovian analysis after dipyridamole” value (myocardial perfusion; young healthy volunteer without risk factors, 0.80 at rest) is reported as 0.83.
For `Cc1cc(C)nc(O[C@H](C(=O)O)C(C)(c2ccccc2)c2ccccc2)n1` [BSF 302146, [+]-[S]-2-[4,6-dimethyl-pyridimin-2-yloxy]-3,3-diphenyl-butanoic acid], the “inhibition of neointimal and medial thickening” value (endothelin 1A receptor) is given as “potent inhibitor”.
In the case of `Nc1ncnc2c1ncn2[C@@H]1O[C@H](CO)[C@@H](O)[C@H]1O` [adenosine], the “ΔAD i.c − ET (percent change in LCx uptake)” value ([1]; Group 1) is reported as 8.7%, the “ΔAD i.v. − ET (change of defect after intravenous adenosine)” value ([1]; Group 1) is reported as “+4.1%” and the “AD i.c. pre-ET: LCx 82Rb uptake as % of baseline” value (“AD i.c. pre-ET … as % of baseline” for short) ([1]; Group 1 (n = 8, defect improved after i.v. adenosine)) is reported as 102%. The “AD i.c. pre-ET … as % of baseline” value ([1]; Group 1 (n = 8, defect improved after i.v. adenosine), listed as AD) was 102.0 ± 5.5%, the “AD i.c. post-ET: LCx 82Rb uptake as % of baseline” value (“AD i.c. post-ET … as % of baseline” below) ([1]; Group 1) was 98.7% and the “AD i.c. post-ET … as % of baseline” value ([1]; Group 1, listed as AD) was 98.7 ± 5.5%. For the same compound, the “AD i.v.: LCx 82Rb uptake as % of baseline” value ([1]; Group 1) was 93.4%, the “AD i.v.: LCx 82Rb uptake as % of baseline” value ([1]; Group 1, listed as AD) was 93.4 ± 6.0% and the “ΔAD i.c − ET (percent change in LCx uptake)” value ([1]; Group 1, listed as AD) was 8.7 ± 4.3%. For the same compound, the “ΔAD i.v. − ET (change of defect after intravenous adenosine)” value ([1]; Group 1, listed as AD) was 4.1 ± 2.0%, the “ΔAD i.c − ET (percent change in LCx uptake)” value ([1]; Group 2) was 10.5% and the “ΔAD i.v. − ET (change of defect after intravenous adenosine)” value ([1]; Group 2) was −12.5%. For the same compound, the “AD i.c. pre-ET … as % of baseline” value ([1]; Group 2 (n = 15, defect not improved or worse after i.v. adenosine)) was 101.3%, the “AD i.c. pre-ET … as % of baseline” value ([1]; Group 2 (n = 15, defect not improved or worse after i.v. adenosine), listed as AD) was 101.3 ± 5.2% and the “AD i.c. post-ET … as % of baseline” value ([1]; Group 2) was 100.5%. The “AD i.c. post-ET … as % of baseline” value ([1]; Group 2, listed as AD) was 100.5 ± 4.3%, the “AD i.v.: LCx 82Rb uptake as % of baseline” value ([1]; Group 2) was 77.7% and the “AD i.v.: LCx 82Rb uptake as % of baseline” value ([1]; Group 2, listed as AD) was 77.7 ± 14.5%. For the same compound, the “ΔAD i.c − ET (percent change in LCx uptake)” value ([1]; Group 2, listed as AD) was 10.5 ± 8.5%, the “ΔAD i.v. − ET (change of defect after intravenous adenosine)” value ([1]; Group 2, listed as AD) was −12.5 ± 9.2% and the “effect of intracoronary adenosine on ET-1-induced resting perfusion defects” value ([1]; all experiments) was “normalized”. For the same compound, the “effect of intravenous adenosine on vasoconstrictor effect of ET-1” value ([1]; doses comparable to clinical practice, all 23 protocol sequences) was “only partially counteracted”, the “visual change of ET-1-induced perfusion defect after intravenous adenosine” value ([1]; group 1 (n=8)) was “improved” and the “visual change of ET-1-induced perfusion defect after intravenous adenosine” value ([1]; group 2 (n=15)) was “visually not improved or relatively worse”.
With `CC[C@H](C)[C@H](NC(=O)[C@H](CC(=O)O)NC(=O)[C@H](CC(C)C)NC(=O)[C@H](Cc1cnc[nH]1)NC(=O)[C@@H]1CSSC[C@H](N)C(=O)N[C@@H](CO)C(=O)N[C@H]2CSSC[C@H](NC(=O)[C@H](CCC(=O)O)NC(=O)[C@H](CCCCN)NC(=O)[C@H](CC(=O)O)NC(=O)[C@H](CCSC)NC(=O)[C@H](CC(C)C)NC(=O)[C@H](CO)NC(=O)[C@H](CO)NC2=O)C(=O)N[C@@H](C(C)C)C(=O)N[C@@H](Cc2ccc(O)cc2)C(=O)N[C@@H](Cc2ccccc2)C(=O)N1)C(=O)N[C@H](C(=O)N[C@@H](Cc1c[nH]c2ccccc12)C(=O)O)[C@@H](C)CC` [ET-1, endothelin-1] the “ΔET − Baseline (severity of ET-induced defect)” value (“ΔET − Baseline” below) ([1]; Group 1) was −12.7%, the “ET: LCx 82Rb uptake as % of baseline” value ([1]; Group 1, after intracoronary ET-1, total dose 44.3 ng) was 89.3% and the “ET: LCx 82Rb uptake as % of baseline” value ([1]; Group 1, after intracoronary ET-1, total dose 44.3 ng, listed as ET) was 89.3 ± 7.3%. The “ΔET − Baseline” value ([1]; Group 1, listed as ET) was −12.7 ± 6.7%, the “ΔET − Baseline” value ([1]; Group 2) was −11.1% and the “ET: LCx 82Rb uptake as % of baseline” value ([1]; Group 2, after intracoronary ET-1, total dose 67.5 ng) was 90.2%. The “ET: LCx 82Rb uptake as % of baseline” value ([1]; Group 2, after intracoronary ET-1, total dose 67.5 ng, listed as ET) was 90.2 ± 8.1%, the “ΔET − Baseline” value ([1]; Group 2, listed as ET) was −11.1 ± 11.9% and the “death because of ET-1 administration” value [1, 2] was “no animal died”. The tachyarrhythmia [1, 2] was “No tachyarrhythmia developed”, the “severity of perfusion defect after intracoronary infusion” value [1] was −10.13% and the “duration of perfusion defect after intracoronary ET-1 infusion” value ([1]; pilot dose-finding, three dogs, in several instances) was “up to 5 h”. For the same compound, the “time at which perfusion defect was first observed” value ([1]; pilot dose-finding, end of initial intracoronary ET-1 infusion) was at least 10 min.
With `CNC(=N)NCCC[C@H](N)C(=O)O` [L-NMMA, N^G-monomethyl-L-arginine] the “severity of perfusion defect after intracoronary infusion” value [1] was −2.48%.
